Read-outs that look alike come from different tables or passages of the source.
Assays:
[1] = tested on: Fusarium graminearum; set-up: species or system wheat; settings: in vivo
[2] = tested on: Septoria tritici; format: cell-based
[3] = tested on: Mycosphaerella fijiensis; format: cell-based
[4] = tested on: Fusarium graminearum; format: cell-based
[5] = tested on: Fusarium graminearum; format: cell-based
[6] = tested on: Septoria tritici; format: cell-based; set-up: key: + indicates a 1- to 5-fold improvement in activity compared to a reference defensin protein; ++ indicates a >5- to 10-fold improvement; +++ indicates a >10-fold improvement; “0” indicates no activity detected
[7] = Measurement taken at 144 hours after inoculation, fold improvement compared to DmAMP1
[8] = Table 2B (Dm-AMP1 based libraries), improvement compared to reference defensin protein (Rs-AFP2 for Table 2B [sic])
[9] = Measurement taken at 72 hours after inoculation, fold improvement compared to DmAMP1
[10] = Table 2C (mixed diversity library), improvement compared to reference defensin protein DmAMP

Sequence | disease spread compared to NP or wildtype defensin expression level in the infected plant [1] | Antifungal activity, Septoria tritici (improvement compared to DmAMP1) [2, 7] | Antifungal activity, Mycosphaerella fijiensis (improvement compared to DmAMP1) [3, 7] | Antifungal activity, Fusarium graminearum (improvement compared to DmAMP1) [4, 9] | Activity (1): antifungal activity of the NP against Fusarium graminearium [5, 10] | further results
QKLCQKPSRTWSGVCGNNNACKNQCIRLEKARHGSCNYVFPAHKCICYFPC (Defensin like) [L2-12] | A protective effect was also seen | – | – | – | – | –
QKLCQRPSGTWSGVCMNNNACKNQCIRLEKAKHGSCNYVFPAHKCICYFPC (Defensin like) [L2-52] | No clear correlation | – | – | – | – | –
ELCEKASKTWSGNCGNTKHCDTQCKNWEGAKHGACHVRSGKHKCFCYFNC (Defensin like) [L3-135] | clear inverse correlation between expression level and disease spread | – | – | – | – | –
NLCERASKTWSGNCGNTKHCDNQCKNWEGAKHGACHVRNGKHKCFCYFNC [L6-28] (Defensin like) | No clear correlation | – | – | – | – | Antifungal activity, Septoria tritici (improvement compared to DmAMP1) [2]: + (key: + indicating 1- to 5-fold improvement compared to DmAMP1; ++ indicating >5- to 10-fold improvement; +++ indicating >10-fold improvement); Antifungal activity, Mycosphaerella fijiensis (improvement compared to DmAMP1) [3]: + (key: + indicating 1- to 5-fold improvement compared to DmAMP1; ++ indicating >5- to 10-fold improvement; +++ indicating >10-fold improvement); Antifungal activity, Fusarium graminearum (improvement compared to DmAMP1) [4]: +++ (key: + indicating 1- to 5-fold improvement compared to DmAMP1; ++ indicating >5- to 10-fold improvement; +++ indicating >10-fold improvement)
NLCERASKTWTGNCGNTKHCDTQCKSWEGAKHGACHVRNGKHKCECYFNC (NLCERASKTWTGNCGNTKHCDTQCKSWEGAKHGACHVRNGKHKCFCYFNC; Defensin like) [L6-84] | – | + (+ indicating 1- to 5-fold improvement compared to DmAMP1) | +++ (+++ indicating >10-fold improvement) | +++ (+++ indicating >10-fold improvement) | – | Activity (1): antifungal activity of the NP against Fusarium graminearium [5, 8]: +++ (+++ indicates a >10-fold improvement)
DGVKLCERPSQTWTGNCGNTKHCDKQCRNWEGAKHGACHVRNGKWKCFCYFNC (Defensin like) [L7-39] | – | + (+ indicating 1- to 5-fold improvement compared to DmAMP1) | + (+ indicating 1- to 5-fold improvement compared to DmAMP1) | + (+ indicating 1- to 5-fold improvement compared to DmAMP1) | ++ (++ indicates a >5- to 10-fold improvement) | –
QKLCEKPSRTWSGVCGNNNACKNQCIRLEKARHGSCNYRFPAHKCICYVPC (Defensin like) [L1-01] | – | – | – | – | – | Activity (2): antifungal activity against Septoria tritici [6]: 0
DGVKLCERASQTWTGHCGNTKHCDNQCRNWEGAKHGACHKRNGKWKCFCYFNC (Defensin like) [L7-337] | – | + (+ indicating 1- to 5-fold improvement compared to DmAMP1) | ++ (++ indicating >5- to 10-fold improvement) | +++ (+++ indicating >10-fold improvement) | ++ (++ indicates a >5- to 10-fold improvement) | –
DGVKLCERASQTWTGHCGNTKHCDNQCKNWEGAKHGACHKRSGKWKCFCYFNC (Defensin like) [L7-176] | – | + (+ indicating 1- to 5-fold improvement compared to DmAMP1) | + (+ indicating 1- to 5-fold improvement compared to DmAMP1) | + (+ indicating 1- to 5-fold improvement compared to DmAMP1) | +++ (+++ indicates a >10-fold improvement) | –
NLCERASKTWTGNCGNTKHCDTQCKSWESAKHGACHVRSGKHKCFCYFNC (Defensin like) [L3-64] | – | ++ (++ indicating >5- to 10-fold improvement) | + (+ indicating 1- to 5-fold improvement compared to DmAMP1) | +++ (+++ indicating >10-fold improvement) | – | Activity (1): antifungal activity of the NP against Fusarium graminearium [5, 8]: + (+ indicates a 1- to 5-fold improvement in activity compared to a reference defensin protein)
DGVKLCERASQTWTGHCGNTKHCDKQCRNWEGAKHGACHKRNGKWKCFCYFNC (Defensin like) [L7-179] | – | + (+ indicating 1- to 5-fold improvement compared to DmAMP1) | + (+ indicating 1- to 5-fold improvement compared to DmAMP1) | + (+ indicating 1- to 5-fold improvement compared to DmAMP1) | +++ (+++ indicates a >10-fold improvement) | –
NLCERASKTWTGNCGNTKHCDTQCKNWEGAKHGACHVRSGKHKCFCYFNC (Defensin like) [L6-58] | – | + (+ indicating 1- to 5-fold improvement compared to DmAMP1) | + (+ indicating 1- to 5-fold improvement compared to DmAMP1) | +++ (+++ indicating >10-fold improvement) | – | Activity (1): antifungal activity of the NP against Fusarium graminearium [5, 8]: +++ (+++ indicates a >10-fold improvement)
